Assay results published in patent US20190380978A1, “SOLID ORAL DOSAGE FORMS OF 2R,6R-HYDROXYNORKETAMINE OR DERIVATIVES THEREOF” (priority 2016, published 2019).

Tests used:
UGT1A1 = target: T1, UGT1A1 (Homo sapiens, UniProt P22309); experiment: UGT inhibition assay, UGT1A1; type: in vitro ADME
T1 sequence (P22309 26-533): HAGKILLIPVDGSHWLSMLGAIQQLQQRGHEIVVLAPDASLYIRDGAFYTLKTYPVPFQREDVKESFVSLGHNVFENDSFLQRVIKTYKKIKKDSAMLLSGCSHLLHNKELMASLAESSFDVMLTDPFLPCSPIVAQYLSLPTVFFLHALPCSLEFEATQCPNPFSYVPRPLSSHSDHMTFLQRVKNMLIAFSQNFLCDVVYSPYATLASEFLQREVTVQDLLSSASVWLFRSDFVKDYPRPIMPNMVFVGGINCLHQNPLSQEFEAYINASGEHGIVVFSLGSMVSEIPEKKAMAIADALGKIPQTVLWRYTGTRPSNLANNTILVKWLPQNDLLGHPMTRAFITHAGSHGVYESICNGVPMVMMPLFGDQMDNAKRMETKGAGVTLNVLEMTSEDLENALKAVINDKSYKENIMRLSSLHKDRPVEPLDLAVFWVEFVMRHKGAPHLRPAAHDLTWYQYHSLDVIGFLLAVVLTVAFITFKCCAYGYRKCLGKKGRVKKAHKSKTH
Text: 2R,6R-hydroxynorketamine was therefore investigated for its potential to inhibit this isozyme, along with that of the major UGT isozyme, UGT1A1, using a UGT inhibition assay.

[1] = in vitro hepatocyte stability assay, rat; type: in vitro ADME; conditions: cryopreserved hepatocytes
Method: 2R,6R-hydroxynorketamine was investigated using an in vitro hepatocyte stability assay, during which 2R,6R-hydroxynorketamine was incubated with cryopreserved hepatocytes from 3 test species.

5-HT1A = target: T2, 5-HT1A (Homo sapiens, UniProt P08908); experiment: binding to 5-HT1A receptor
T2 sequence (P08908 1-422): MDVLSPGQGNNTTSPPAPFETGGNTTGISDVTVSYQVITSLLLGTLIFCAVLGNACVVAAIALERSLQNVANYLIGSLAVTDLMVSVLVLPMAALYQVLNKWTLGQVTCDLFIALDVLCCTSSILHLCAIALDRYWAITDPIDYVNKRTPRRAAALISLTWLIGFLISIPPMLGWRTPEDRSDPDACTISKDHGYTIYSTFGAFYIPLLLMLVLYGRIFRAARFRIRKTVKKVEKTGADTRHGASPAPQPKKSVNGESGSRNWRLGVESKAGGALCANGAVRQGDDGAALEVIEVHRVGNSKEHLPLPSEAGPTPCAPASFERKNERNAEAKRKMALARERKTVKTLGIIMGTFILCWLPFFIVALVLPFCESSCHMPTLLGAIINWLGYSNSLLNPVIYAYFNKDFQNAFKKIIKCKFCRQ
Text: (§1) 2R,6R-hydroxynorketamine was investigated for binding to monoamine oxidases A and B, monoamine transporters, as well as a variety of 5HT receptors.

5-HT transporter = 5-HT transporter (Homo sapiens, UniProt P31645); experiment: binding to 5-HT transporter
Text: as §1

CYP2B6 = target: T3, CYP2B6 (Homo sapiens, UniProt P20813); experiment: CYP inhibition assay, CYP2B6; type: in vitro ADME
T3 sequence (P20813 1-491): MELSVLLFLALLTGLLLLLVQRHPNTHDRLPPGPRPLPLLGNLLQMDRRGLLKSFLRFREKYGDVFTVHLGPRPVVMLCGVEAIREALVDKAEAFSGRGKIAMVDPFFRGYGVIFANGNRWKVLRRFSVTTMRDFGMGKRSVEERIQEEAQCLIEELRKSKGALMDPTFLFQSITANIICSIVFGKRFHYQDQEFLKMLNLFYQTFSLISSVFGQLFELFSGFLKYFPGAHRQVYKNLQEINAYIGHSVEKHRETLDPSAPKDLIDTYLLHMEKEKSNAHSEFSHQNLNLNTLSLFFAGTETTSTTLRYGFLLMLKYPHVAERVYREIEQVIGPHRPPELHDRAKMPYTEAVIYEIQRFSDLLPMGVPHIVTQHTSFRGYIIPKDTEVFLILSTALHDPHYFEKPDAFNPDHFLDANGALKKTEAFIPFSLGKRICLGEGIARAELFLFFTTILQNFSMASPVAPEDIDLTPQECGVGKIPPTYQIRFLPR
Text: Cytochrome P450s (CYPs) are a family of enzymes that play a primary role in the metabolism of a wide variety of drugs. 2R,6R-hydroxynorketamine was investigated for its potential to inhibit the action of 7 key CYP enzymes using an inhibition assay measuring reduction in the formation of metabolites compared to control.

[2] = turbidimetric aqueous solubility; type: physicochemical
plasma binding proteins = experiment: fraction unbound in 100% plasma, rat; type: in vitro ADME
Text: While the risk of DDIs due to displacement from plasma binding proteins (PPBs) is relatively low, it should be considered for drugs which display a high proportion PPB (fraction unbound (fu)<1%).
The fu was investigated for 2R,6R-hydroxynorketamine using a 100% plasma from 4 test species.

UGT2B7 = UGT2B7 (Homo sapiens, UniProt P16662); experiment: UGT inhibition assay, UGT2B7; type: in vitro ADME
5-HT1, Non-Selective = experiment: binding to 5-HT1 receptors, non-selective
Text: as §1
An absence of interaction between 2R,6R-hydroxynorketamine and 5HT1 receptors is also of note. Rare postmarketing reports have described patients with weakness, hyperreflexia, and incoordination following the use of an SSRI and the 5HT1 agonist, sumatriptan. The possibility of such interactions should also be considered if other 5HT1 agonists are to be used in combination with SSRIs.

5-HT transporter, sequence (P31645 whole entry, species assumed): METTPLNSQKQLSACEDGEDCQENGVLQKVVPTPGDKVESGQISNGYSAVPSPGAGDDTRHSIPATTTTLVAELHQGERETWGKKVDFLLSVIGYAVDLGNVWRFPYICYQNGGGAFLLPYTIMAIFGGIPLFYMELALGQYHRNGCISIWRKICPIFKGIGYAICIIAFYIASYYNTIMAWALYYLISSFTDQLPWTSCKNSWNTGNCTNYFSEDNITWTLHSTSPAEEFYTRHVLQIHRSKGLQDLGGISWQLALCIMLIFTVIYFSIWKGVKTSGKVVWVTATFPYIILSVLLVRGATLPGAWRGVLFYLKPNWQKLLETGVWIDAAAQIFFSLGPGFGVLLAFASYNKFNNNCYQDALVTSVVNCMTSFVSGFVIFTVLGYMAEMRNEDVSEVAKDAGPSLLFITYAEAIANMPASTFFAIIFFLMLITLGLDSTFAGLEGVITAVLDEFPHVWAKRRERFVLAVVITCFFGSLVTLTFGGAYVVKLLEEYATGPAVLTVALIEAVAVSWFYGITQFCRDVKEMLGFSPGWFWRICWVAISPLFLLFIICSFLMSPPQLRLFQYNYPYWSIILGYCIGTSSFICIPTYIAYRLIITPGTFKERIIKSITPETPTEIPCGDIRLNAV
UGT2B7, sequence (P16662 24-529): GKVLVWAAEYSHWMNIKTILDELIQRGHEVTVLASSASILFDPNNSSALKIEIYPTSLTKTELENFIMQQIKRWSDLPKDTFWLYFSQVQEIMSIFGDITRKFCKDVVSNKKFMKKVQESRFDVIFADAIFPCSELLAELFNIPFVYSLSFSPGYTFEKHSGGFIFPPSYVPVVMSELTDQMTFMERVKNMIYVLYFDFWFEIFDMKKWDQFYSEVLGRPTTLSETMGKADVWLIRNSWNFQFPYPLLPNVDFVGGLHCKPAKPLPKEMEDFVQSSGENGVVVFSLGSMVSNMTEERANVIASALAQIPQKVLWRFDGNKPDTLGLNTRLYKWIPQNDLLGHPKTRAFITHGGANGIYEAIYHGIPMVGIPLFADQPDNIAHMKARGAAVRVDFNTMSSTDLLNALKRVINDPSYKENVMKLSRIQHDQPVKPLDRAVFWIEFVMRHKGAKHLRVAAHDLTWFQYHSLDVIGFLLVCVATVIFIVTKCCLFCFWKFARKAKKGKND

Structure (SMILES): N[C@@]1(c2ccccc2Cl)CCC[C@@H](O)C1=O [2R,6R-hydroxynorketamine]
- inhibition of UGT1A1 (UGT1A1): does not inhibit
- half-life [1]: 25.1 min
- hepatocyte CLint [1]: 55.2 µL/min/1e6 cells
- % Inhibition of Control Specific Binding (5-HT1A): 5%
- % of Control Specific Binding (5-HT1A): 97.9%
- binding to 5HT1A receptor subtype (5-HT1A): does not bind
- % Inhibition of Control Specific Binding (5-HT transporter): 2%
- % of Control Specific Binding (5-HT transporter): 102.0%
- inhibition of CYP2B6 (CYP2B6): did not inhibit
- inhibition at 0.4 µM (CYP2B6; human, 0.4 μM): 6.03%
- inhibition at 1 µM (CYP2B6; human, 1 μM): 10.1%
- inhibition at 4 µM (CYP2B6; human, 4 μM): 10.6%
- inhibition at 10 µM (CYP2B6; human, 10 μM): 14.4%
- inhibition at 40 µM (CYP2B6; human, 40 μM): 14.8%
- inhibition at 100 µM (CYP2B6; human, 100 μM): 16.7%
- estimated precipitation range lower bound [2]: 100 µM
- estimated precipitation range upper bound [2]: > 100 µM
- solubility [2]: high solubility
- plasma protein binding (PPB), words (plasma binding proteins): low PPB
- substrate of p-gp or Breast Cancer Resistance Protein (BCRP) efflux transporters (Caco-2; Caco-2): not a substrate
- permeability (Caco-2; Caco-2 permeability assay): high
- inhibition of UGT2B7 (UGT2B7): does not inhibit
- % Inhibition of Control Specific Binding (5-HT1, Non-Selective): −9%
- % of Control Specific Binding (5-HT1, Non-Selective): 105.4%
- binding to 5HT1 receptors (5-HT1, Non-Selective): does not bind
